Measurements reported in patent publication US8207218B2, “DMAE as sole agent for the treatment of mild cognitive impairment” (Pierre Fabre Medicament, priority 2006, dated 2012).

Legend:
[1] = tested on: healthy individuals with memory loss induced by injection of scopolamine; test: Buschke Selective Reminding Test, memory loss induced by injection of scopolamine (cross-over study); assay type: in vivo; details: 24 healthy individuals, repeated oral doses
Experimental: (§1) Under the present invention, the activity of DMAE and its salts and esters, and the hydrates and solvates, was assessed in a population in whom this memory disorder was induced by injection of scopolamine, to reproduce the profile of the target population.
(§2) The medications given were in forms suitable to be taken via oral route, corresponding to dosage units allowing daily doses in the order of 100 mg to 3 g, advantageously 300 mg to 3 g of active ingredient in adults, particularly in the order of 1500 mg per day. The tested medications led to plasma levels corresponding to a Cmax peak of around 1.5 μg/ml of DMAE and/or around 24 ng/ml of pGlu (pyroglutamic acid).
(§3) The Applicant conducted the following tests: • Memory test: Buschke Selective Reminding Test, • Attention test: Digit Symbol Substitution Test (90″) • Assessment of alertness and mood: EVA by Bond and Lader, • Sensory-motor performance tests: reaction times (total, decisional and motor)
The main results observed are given in the graphs of the appended FIGS. 1 to 4 in which: • LTS designates the number of words acquired in long-term storage, • LTR designates the number of words retrieved from long-term memory in each test i.e. the words belonging to LTS and which are recalled for the test in progress, and • CLTR designates the number of words which are consistently acquired i.e. which are recalled during subsequent tests.

[2] = tested on: healthy individuals with memory loss induced by injection of scopolamine; test: Attention (Digit Symbol Substitution Test), alertness and mood (EVA by Bond and Lader), reaction times, after scopolamine; assay type: in vivo; details: 24 healthy individuals, repeated oral doses
Experimental: as §1, §2, §3

SMILES | effect on memory performance levels [1] | impact on the other cognitive components tested such as alertness, attention [2]
CN(C)CCO.O=C1CC[C@@H](C(=O)O)N1 [DMAE pyroglutamate] | specific effect on memory performance levels | without any impact
CN(C)CCO [DMAE, dimethylaminoethanol] | specific effect on memory performance levels | without any impact
